Measurements: patent publication US20090176817A1, “Method of Treatment of Diarrhea-Predominant Irritable Bowel Syndrome in a Subject” (priority 2005, published 2009)

Test system: diarrhea-predominant IBS subjects
Assay: Study S241.3.009: weekly diary questions on adequate relief
Format: in vivo, human
Details: 2 mg TID, ITT; for Number of months a subject was a responder during Months 1 to 3: IBS symptoms, One month / Number of months a subject was a responder during Months 1 to 3: IBS symptoms, Three months / Number of months a subject was a responder during Months 1 to 3: IBS symptoms, Two months / Number of months a subject was a responder during Months 1 to 3: IBS symptoms, Zero months / Number of months a subject was a responder during Months 1 to 3: Abdominal pain/discomfort, One month / Number of months a subject was a responder during Months 1 to 3: Abdominal pain/discomfort, Three months / Number of months a subject was a responder during Months 1 to 3: Abdominal pain/discomfort, Two months / Number of months a subject was a responder during Months 1 to 3: Abdominal pain/discomfort, Zero months / Number of months a subject was a responder during Months 1 to 3: Abnormal bowel habits, One month / Number of months a subject was a responder during Months 1 to 3: Abnormal bowel habits, Three months / Number of months a subject was a responder during Months 1 to 3: Abnormal bowel habits, Two months / Number of months a subject was a responder during Months 1 to 3: Abnormal bowel habits, Zero months / Responder rate, adequate relief of IBS symptoms / Responder rate, adequate relief of abdominal pain/discomfort / Responder rate, adequate relief of abnormal bowel habits: monthly LOCF imputation; for Number of subjects who were responders during the 26-week treatment period: Adequate relief of IBS symptoms / Number of subjects who were responders during the 26-week treatment period: Adequate relief of abdominal pain/discomfort / Number of subjects who were responders during the 26-week treatment period: Adequate relief of abnormal bowel habits: observed case
Experimental: Study S241.3.009 was a Phase III, a double-blind, placebo-controlled, randomized, multinational study to investigate the safety and efficacy of 2 mg TID of cilansetron over 26 weeks in diarrhea-predominant IBS subjects. The study was conducted in 146 multinational study centers. A total of 1307 subjects consented to participate, and 806 subjects were randomized. A total of 792 subjects were analyzed for efficacy and 799 subjects were analyzed for safety. Diagnosis and main criteria for inclusion were IBS subjects satisfying the Rome I criteria (1992); the diarrhea-predominant sub-population of the Rome II criteria; and a minimum abdominal pain/discomfort, stool frequency and consistency determined during the run-in period. Subjects were treated with cilansetron 2 mg tablets given orally TID or matching placebo tablets given orally TID for 26 weeks.
The primary efficacy parameter was the overall response rate for IBS symptoms, based on the weekly question concerning adequate relief of IBS symptoms (abdominal pain/discomfort, abnormal bowel habits) over the 26 weeks period. A responder was a subject who responded “yes” at least 50% of the time during his/her treatment period, with minimum treatment duration of four weeks. The two main secondary efficacy parameters were overall responder rate based on the weekly question on adequate relief of abdominal pain/discomfort and abnormal bowel habits during the 26-week treatment period. The onset of action of cilansetron was also examined using daily diary data (stool frequency, and ratings of urgency and severity) during the initial 8 weeks of trial participation. An additional key secondary efficacy parameter was the number of months (one month equals four weeks) up to six months (24-weeks) that a subject was a responder for IBS symptoms, where a responder was defined as a subject who answered the weekly question with “yes” at least twice for that month. The responder rate for the weekly diary questions on adequate relief at each month and all months, the adequate relief rate, the number of subjects with adequate relief by week, daily diary questions, IBS-QOL scores, and the interruption of activities were also assessed. Safety was evaluated by physical examination, ECG, vital signs, laboratory evaluations, concomitant medications, and AEs.
Studies S24 1.3.OO6, S24 1.3.0 1 1, and S24 1.3.009 used the following efficacy measurements: • The subjects answered the following three questions with “yes” or “no” using a phone diary at the end of each week: • a) During the last week, did you experience adequate relief of your IBS symptoms, such as abdominal pain, abdominal discomfort, abnormal bowel habits? • b) During the last week, did you experience adequate relief of your abdominal pain and/or discomfort? • c) During the last week, did you experience adequate relief of your abnormal bowel habits? • The subjects rated the following symptoms using the phone diary at the end of each day: • abdominal pain/discomfort (five-point scale); • stool consistency (seven-point Bristol Stool Scale); • stool frequency (number of bowel movements each day); • urgency (five-point scale); • straining (yes or no); • feeling of incomplete defecation (yes or no); • bloating or feeling of abdominal distension (five-point scale). • In Studies S241 A006 and S241.3.009, subjects completed the IBS-QOL Survey at Baseline (Day 1) and at the end of treatment. In Study S24 1.3.0 1 1, subjects completed the IBS-QOL Survey at Baseline (Day 1), at the end of the three-month treatment period, and at the end of rerandomized treatment.
In all three pivotal efficacy studies, the primary and main secondary efficacy parameters were based on the weekly diary questions on adequate relief and included the following: • 1. Number of months (one month equals four weeks) that a subject was a responder for the weekly diary questions on adequate relief. […]

[1] = Duration of IBS: >24 months to ≦48 months
[2] = Duration of IBS: >48 months to ≦120 months

Cc1nccn1C[C@H]1CCc2c(c3cccc4c3n2CCC4)C1=O [Cilansetron, (R)-(−)-4,5,6,8,9,10-hexahydro-10-[(2-methyl-1H-imidazol-1-yl)methyl]-11H-pyrido-[3,2,1-jk]-carbazol-11-one]
Number of months a subject was a responder during Months 1 to 3: IBS symptoms, One month [1]: 9 (9) n (%)
Number of months a subject was a responder during Months 1 to 3: IBS symptoms, Three months [1]: 35 (36) n (%)
Number of months a subject was a responder during Months 1 to 3: IBS symptoms, Two months [1]: 21 (22) n (%)
Number of months a subject was a responder during Months 1 to 3: IBS symptoms, Zero months [1]: 31 (32) n (%)
Number of subjects who were responders during the 26-week treatment period: Adequate relief of IBS symptoms [1]: 56 (58) n (%)
Number of subjects who were responders during the 26-week treatment period: Adequate relief of abdominal pain/discomfort [1]: 60 (63) n (%)
Number of subjects who were responders during the 26-week treatment period: Adequate relief of abnormal bowel habits [1]: 63 (66) n (%)
Number of months a subject was a responder during Months 1 to 3: Abdominal pain/discomfort, One month [2]: 21 (16) n (%)
Number of months a subject was a responder during Months 1 to 3: Abdominal pain/discomfort, Three months [2]: 45 (34) n (%)
Number of months a subject was a responder during Months 1 to 3: Abdominal pain/discomfort, Two months [2]: 23 (18) n (%)
Number of months a subject was a responder during Months 1 to 3: Abdominal pain/discomfort, Zero months [2]: 42 (32) n (%)
Number of months a subject was a responder during Months 1 to 3: Abnormal bowel habits, One month [2]: 19 (15) n (%)
Number of months a subject was a responder during Months 1 to 3: Abnormal bowel habits, Three months [2]: 51 (39) n (%)
Number of months a subject was a responder during Months 1 to 3: Abnormal bowel habits, Two months [2]: 26 (20) n (%)
Number of months a subject was a responder during Months 1 to 3: Abnormal bowel habits, Zero months [2]: 35 (27) n (%)
Number of months a subject was a responder during Months 1 to 3: IBS symptoms, One month [2]: 16 (12) n (%)
Number of months a subject was a responder during Months 1 to 3: IBS symptoms, Three months [2]: 46 (35) n (%)
Number of months a subject was a responder during Months 1 to 3: IBS symptoms, Two months [2]: 28 (21) n (%)
Number of months a subject was a responder during Months 1 to 3: IBS symptoms, Zero months [2]: 41 (31) n (%)
Number of subjects who were responders during the 26-week treatment period: Adequate relief of IBS symptoms [2]: 72 (55) n (%)
Number of subjects who were responders during the 26-week treatment period: Adequate relief of abdominal pain/discomfort [2]: 68 (52) n (%)
Number of subjects who were responders during the 26-week treatment period: Adequate relief of abnormal bowel habits [2]: 79 (60) n (%)
Number of months a subject was a responder during Months 1 to 3: Abdominal pain/discomfort, One month (Duration of IBS: >120 months): 15 (21) n (%)
Number of months a subject was a responder during Months 1 to 3: Abdominal pain/discomfort, Three months (Duration of IBS: >120 months): 22 (31) n (%)
Number of months a subject was a responder during Months 1 to 3: Abdominal pain/discomfort, Two months (Duration of IBS: >120 months): 15 (21) n (%)
Number of months a subject was a responder during Months 1 to 3: Abdominal pain/discomfort, Zero months (Duration of IBS: >120 months): 20 (28) n (%)
Number of months a subject was a responder during Months 1 to 3: Abnormal bowel habits, One month (Duration of IBS: >120 months): 10 (14) n (%)
Number of months a subject was a responder during Months 1 to 3: Abnormal bowel habits, Three months (Duration of IBS: >120 months): 27 (38) n (%)
Number of months a subject was a responder during Months 1 to 3: Abnormal bowel habits, Two months (Duration of IBS: >120 months): 14 (19) n (%)
Number of months a subject was a responder during Months 1 to 3: Abnormal bowel habits, Zero months (Duration of IBS: >120 months): 21 (29) n (%)
Number of months a subject was a responder during Months 1 to 3: IBS symptoms, One month (Duration of IBS: >120 months): 14 (19) n (%)
Number of months a subject was a responder during Months 1 to 3: IBS symptoms, Three months (Duration of IBS: >120 months): 23 (32) n (%)
Number of months a subject was a responder during Months 1 to 3: IBS symptoms, Two months (Duration of IBS: >120 months): 15 (21) n (%)
Number of months a subject was a responder during Months 1 to 3: IBS symptoms, Zero months (Duration of IBS: >120 months): 20 (28) n (%)
Number of subjects who were responders during the 26-week treatment period: Adequate relief of IBS symptoms (Duration of IBS: >120 months): 40 (56) n (%)
Number of subjects who were responders during the 26-week treatment period: Adequate relief of abdominal pain/discomfort (Duration of IBS: >120 months): 41 (57) n (%)
Number of subjects who were responders during the 26-week treatment period: Adequate relief of abnormal bowel habits (Duration of IBS: >120 months): 42 (58) n (%)
Number of months a subject was a responder during Months 1 to 3: Abdominal pain/discomfort, One month (Duration of IBS: ≦24 months): 11 (11) n (%)
Number of months a subject was a responder during Months 1 to 3: Abdominal pain/discomfort, Three months (Duration of IBS: ≦24 months): 55 (57) n (%)
Number of months a subject was a responder during Months 1 to 3: Abdominal pain/discomfort, Two months (Duration of IBS: ≦24 months): 13 (14) n (%)
Number of months a subject was a responder during Months 1 to 3: Abdominal pain/discomfort, Zero months (Duration of IBS: ≦24 months): 17 (18) n (%)
Number of months a subject was a responder during Months 1 to 3: Abnormal bowel habits, One month (Duration of IBS: ≦24 months): 9 (9) n (%)
Number of months a subject was a responder during Months 1 to 3: Abnormal bowel habits, Three months (Duration of IBS: ≦24 months): 51 (53) n (%)
Number of months a subject was a responder during Months 1 to 3: Abnormal bowel habits, Two months (Duration of IBS: ≦24 months): 18 (19) n (%)
Number of months a subject was a responder during Months 1 to 3: Abnormal bowel habits, Zero months (Duration of IBS: ≦24 months): 18 (19) n (%)
Number of months a subject was a responder during Months 1 to 3: IBS symptoms, One month (Duration of IBS: ≦24 months): 16 (17) n (%)
Number of months a subject was a responder during Months 1 to 3: IBS symptoms, Three months (Duration of IBS: ≦24 months): 46 (48) n (%)
Number of months a subject was a responder during Months 1 to 3: IBS symptoms, Two months (Duration of IBS: ≦24 months): 16 (17) n (%)
Number of months a subject was a responder during Months 1 to 3: IBS symptoms, Zero months (Duration of IBS: ≦24 months): 18 (19) n (%)
Number of subjects who were responders during the 26-week treatment period: Adequate relief of IBS symptoms (Duration of IBS: ≦24 months): 66 (69) n (%)
Number of subjects who were responders during the 26-week treatment period: Adequate relief of abdominal pain/discomfort (Duration of IBS: ≦24 months): 70 (73) n (%)
Number of subjects who were responders during the 26-week treatment period: Adequate relief of abnormal bowel habits (Duration of IBS: ≦24 months): 69 (72) n (%)
Responder rate, adequate relief of IBS symptoms (Each month of Months 1 to 3): 150 (38) n (%)
Responder rate, adequate relief of abdominal pain/discomfort (Each month of Months 1 to 3): 159 (40) n (%)
Responder rate, adequate relief of abnormal bowel habits (Each month of Months 1 to 3): 165 (42) n (%)
Responder rate, adequate relief of IBS symptoms (Each month of Months 1 to 6): 121 (31) n (%)
Responder rate, adequate relief of abdominal pain/discomfort (Each month of Months 1 to 6): 133 (34) n (%)
Responder rate, adequate relief of abnormal bowel habits (Each month of Months 1 to 6): 136 (34) n (%)
Responder rate, adequate relief of IBS symptoms (Each month of Months 4 to 6): 193 (49) n (%)
Responder rate, adequate relief of abdominal pain/discomfort (Each month of Months 4 to 6): 202 (51) n (%)
